These results are taken from patent publication US4294849A, “Prostaglandin analogues” (Warner-Lambert Company, priority 1979, dated 1981).

SMILES strings stand for the structures.

For data set [1], the system named is blood platelet aggregation. In words: inhibitory activity on adenosine diphosphate-induced blood platelet aggregation in platelet-rich plasma of humans. The class given is cell-based, human. The following applies: for Inhibitory Activity on Blood Platelet Aggregation Human, relative to PGE1 taken as 1: relative to PGE1 = 1; for inhibitory activity on adenosine diphosphate-induced blood platelet aggregation, times as potent as PGE1: human platelet-rich plasma, vs PGE1.

Data set [2] deals with blood platelet aggregation. In words: inhibitory activity on adenosine diphosphate-induced blood platelet aggregation in platelet-rich plasma of rats. The class given is cell-based, rat. The settings on record: for Inhibitory Activity on Blood Platelet Aggregation Rat, relative to PGE1 taken as 1: relative to PGE1 = 1; for inhibitory activity on adenosine diphosphate-induced blood platelet aggregation, times as potent as PGE1: rat platelet-rich plasma, vs PGE1.

The next data set deals with isolated rabbit hearts. In words: coronary vasodilator activity on isolated rabbit hearts. The following applies: for Vasodilator Activity Rabbit, relative to PGE1 taken as 1: relative to PGE1 = 1; for coronary vasodilator activity, times as potent as PGE1: isolated rabbit hearts, vs PGE1.
The next data set relates to dogs. As to the kind of experiment: hypotensive activity, intravenous administration to allobarbital-anaesthetised dogs. The class given is in vivo, dog. The settings on record: for Hypotensive Activity Dog (i.v.), relative to PGE1 taken as 1: relative to PGE1 = 1; for useful activities (hypotensive, blood platelet aggregation inhibitory, vasodilator): in words, summary of the Table; for hypotensive activity, times as potent as PGE1: intravenous, allobarbital-anaesthetised dogs, vs PGE1.

Another data set deals with mice. The settings on record: mouse, in vivo; for Diarrhoea-inducing Activity Mice (p.o.), relative to PGE1 taken as 1 / diarrhoea-inducing activity compared with PGE1: po.
Data set [3] deals with spontaneously hypertensive rats. In words: hypotensive activity, oral administration to conscious spontaneously hypertensive rats. The settings on record: for Hypotensive Activity Rat (p.o.), relative to PGE1 taken as 1: relative to PGE1 = 1; for hypotensive activity, times as potent as PGE1: oral, conscious spontaneously hypertensive rats, vs PGE1. The class given is in vivo, rat.
From the text: In the Table, all the activities are indicated relative to the activity of PGE1, taken as 1.

Data set [4] is described as follows: acute toxicity tests, intravenous or oral administration to mice. The following applies: mouse, in vivo. On the procedure: Acute toxicity tests on the compounds of the present invention were conducted by administering them intravenously or orally to mice.

As to `CCCC[C@@H](C)C[C@H](O)/C=C/[C@H]1[C@H](O)CC(=O)[C@@H]1CCCC/C=C/C(=O)O` [G, 9-oxo-11α,15α-dihydroxy-17R,20-dimethylprosta-trans-2,trans-13-dienoic acid], in data set [1], the “Inhibitory Activity on Blood Platelet Aggregation Human, relative to PGE1 taken as 1” value is reported as 48.1 and the “inhibitory activity on adenosine diphosphate-induced blood platelet aggregation, times as potent as PGE1” value (shortened to “inhibitory activity … as PGE1”) is 48.1 times. Also, in data set [2], the “Inhibitory Activity on Blood Platelet Aggregation Rat, relative to PGE1 taken as 1” value was found to be 70.5 and the “inhibitory activity … as PGE1” value came to 70.5 times. Further, in the data set on isolated rabbit hearts, the “Vasodilator Activity Rabbit, relative to PGE1 taken as 1” value turned out to be 14.0 and the “coronary vasodilator activity, times as potent as PGE1” value was found to be 14.0 times. Also, in the data set on dogs, the “Hypotensive Activity Dog (i.v.), relative to PGE1 taken as 1” value was 3.5; the “useful activities (hypotensive, blood platelet aggregation inhibitory, vasodilator)” value is on record as “extremely strong”; the “hypotensive activity, times as potent as PGE1” value (“hypotensive activity, times” for short) came to 3.5 times. In addition, in the data set with mice, the “diarrhoea-inducing (side-effect) activity compared with the known compounds” value is “weaker”; the “Diarrhoea-inducing Activity Mice (p.o.), relative to PGE1 taken as 1” value is below 1; the “diarrhoea-inducing activity compared with PGE1” value was “lower diarrhoea-inducing activity than PGE1”.

Consider `CCCCCC(CC)C[C@H](O)/C=C/[C@H]1[C@H](O)CC(=O)[C@@H]1CCCC/C=C/C(=O)OC` (stereo partly drawn) [E, methyl 9-oxo-11α,15α-dihydroxy-17,20-diethylprosta-trans-2,trans-13-dienoate, reference compound], for which the “Inhibitory Activity on Blood Platelet Aggregation Human, relative to PGE1 taken as 1” value in data set [1] is recorded as 0.14. The “Hypotensive Activity Rat (p.o.), relative to PGE1 taken as 1” value in data set [3] was 10. Moreover, the “Inhibitory Activity on Blood Platelet Aggregation Rat, relative to PGE1 taken as 1” value in data set [2] amounted to 2.2. Moreover, in the data set with isolated rabbit hearts, the “Vasodilator Activity Rabbit, relative to PGE1 taken as 1” value was 0.1. In addition, the “Hypotensive Activity Dog (i.v.), relative to PGE1 taken as 1” value with dogs is listed as 0.88. Further, the “Diarrhoea-inducing Activity Mice (p.o.), relative to PGE1 taken as 1” value in the data set on mice is listed as 1.7.

For `CCCC[C@H](C)C[C@H](O)/C=C/[C@H]1[C@H](O)CC(=O)[C@@H]1CCCC/C=C/C(=O)OC` [H, methyl 9-oxo-11α,15α-dihydroxy-17S,20-dimethylprosta-trans-2,trans-13-dienoate], in data set [3], the “Hypotensive Activity Rat (p.o.), relative to PGE1 taken as 1” value was found to be 100 and the “hypotensive activity, times” value came to 100 times. In the data set with dogs, the “Hypotensive Activity Dog (i.v.), relative to PGE1 taken as 1” value was determined as 5.0; the “useful activities (hypotensive, blood platelet aggregation inhibitory, vasodilator)” value is on record as “extremely strong”; the “hypotensive activity, times” value is reported as 5 times. In the data set with mice, the “diarrhoea-inducing (side-effect) activity compared with the known compounds” value is recorded as “weaker”; the “Diarrhoea-inducing Activity Mice (p.o.), relative to PGE1 taken as 1” value was below 1; the “diarrhoea-inducing activity compared with PGE1” value is on record as “lower diarrhoea-inducing activity than PGE1”.

As usually defined, the LD50 is the dose expected to kill half of the subjects tested. A higher LD50 goes with lower toxicity. As to `CCCC[C@H](C)C[C@H](O)/C=C/[C@H]1[C@H](O)CC(=O)[C@@H]1CCCC/C=C/C(=O)O` [F, 9-oxo-11α,15α-dihydroxy-17S,20-dimethylprosta-trans-2,trans-13-dienoic acid], in data set [1], the “Inhibitory Activity on Blood Platelet Aggregation Human, relative to PGE1 taken as 1” value worked out at 38.5 and the “inhibitory activity … as PGE1” value is listed as 38.5 times. Moreover, in data set [3], the “Hypotensive Activity Rat (p.o.), relative to PGE1 taken as 1” value is reported as 100 and the “hypotensive activity, times” value is given as 100 times. Further, in data set [2], the “Inhibitory Activity on Blood Platelet Aggregation Rat, relative to PGE1 taken as 1” value was 81.6 and the “inhibitory activity … as PGE1” value was determined as 81.6 times. Moreover, in the data set on isolated rabbit hearts, the “Vasodilator Activity Rabbit, relative to PGE1 taken as 1” value is reported as 19.0 and the “coronary vasodilator activity, times as potent as PGE1” value is 19.0 times. In the data set on dogs, the “Hypotensive Activity Dog (i.v.), relative to PGE1 taken as 1” value is listed as 10.0; the “useful activities (hypotensive, blood platelet aggregation inhibitory, vasodilator)” value is recorded as “extremely strong”; the “hypotensive activity, times” value worked out at 10 times. Moreover, in the data set on mice, the “diarrhoea-inducing (side-effect) activity compared with the known compounds” value is listed as “weaker”; the “Diarrhoea-inducing Activity Mice (p.o.), relative to PGE1 taken as 1” value is below 1; the “diarrhoea-inducing activity compared with PGE1” value is reported as “lower diarrhoea-inducing activity than PGE1”. In data set [4] (intravenous administration), the LD50 is around 12 mg/kg. The 50% lethal dose (LD50) in data set [4] (oral administration) was around 50 mg/kg.

With `CC(c1ccccc1)[C@H](O)/C=C/[C@H]1[C@H](O)CC(=O)[C@@H]1CCCC/C=C/C(=O)O` (stereo partly drawn) [C, 9-oxo-11α,15α-dihydroxy-16-phenyl-18,19,20-trinorprosta-trans-2,trans-13-dienoic acid, reference compound], in the data set with isolated rabbit hearts, the “Vasodilator Activity Rabbit, relative to PGE1 taken as 1” value stood at 0.3. For the same molecule, the “Hypotensive Activity Dog (i.v.), relative to PGE1 taken as 1” value with dogs amounted to 39.0. Also, the “Diarrhoea-inducing Activity Mice (p.o.), relative to PGE1 taken as 1” value in the data set on mice stood at 11.9.

In the case of `CCCCCC(CC)C[C@H](O)/C=C/[C@H]1[C@H](O)CC(=O)[C@@H]1CCCC/C=C/C(=O)O` (stereo partly drawn) [D, 9-oxo-11α,15α-dihydroxy-17,20-diethylprosta-trans-2,trans-13-dienoic acid, reference compound], the “Inhibitory Activity on Blood Platelet Aggregation Human, relative to PGE1 taken as 1” value in data set [1] was 2.4. Besides, the “Hypotensive Activity Rat (p.o.), relative to PGE1 taken as 1” value in data set [3] is reported as 30-100. Besides, the “Inhibitory Activity on Blood Platelet Aggregation Rat, relative to PGE1 taken as 1” value in data set [2] came to 1.4. In the data set on isolated rabbit hearts, the “Vasodilator Activity Rabbit, relative to PGE1 taken as 1” value is recorded as below 0.1. Besides, the “Hypotensive Activity Dog (i.v.), relative to PGE1 taken as 1” value with dogs is on record as 1.45. Also, the “Diarrhoea-inducing Activity Mice (p.o.), relative to PGE1 taken as 1” value in the data set with mice is on record as 3.2.

For `CCCC[C@@H](C)[C@H](O)/C=C/[C@H]1[C@H](O)CC(=O)[C@@H]1CCCC/C=C/C(=O)O` [A, 9-oxo-11α,15α-dihydroxy-16R-methylprosta-trans-2,trans-13-dienoic acid, reference compound], the “Inhibitory Activity on Blood Platelet Aggregation Human, relative to PGE1 taken as 1” value in data set [1] was found to be 1.6. The “Inhibitory Activity on Blood Platelet Aggregation Rat, relative to PGE1 taken as 1” value in data set [2] is 2.84. For the same molecule, the “Vasodilator Activity Rabbit, relative to PGE1 taken as 1” value in the data set with isolated rabbit hearts is 2-3. In addition, the “Hypotensive Activity Dog (i.v.), relative to PGE1 taken as 1” value with dogs came to 9.5. Moreover, the “Diarrhoea-inducing Activity Mice (p.o.), relative to PGE1 taken as 1” value with mice stood at 270.6.

`CCCC(CC)C[C@H](O)/C=C/[C@H]1[C@H](O)CC(=O)[C@@H]1CCCC/C=C/C(=O)O` (stereo partly drawn) [B, 9-oxo-11α,15α-dihydroxy-17-ethylprosta-trans-2,trans-13-dienoic acid, reference compound]: the “Inhibitory Activity on Blood Platelet Aggregation Human, relative to PGE1 taken as 1” value in data set [1] was found to be 22.1. Further, the “Hypotensive Activity Rat (p.o.), relative to PGE1 taken as 1” value in data set [3] is 10. For the same molecule, the “Inhibitory Activity on Blood Platelet Aggregation Rat, relative to PGE1 taken as 1” value in data set [2] is 14.5. Further, in the data set on isolated rabbit hearts, the “Vasodilator Activity Rabbit, relative to PGE1 taken as 1” value is reported as 1.0. Further, in the data set on dogs, the “Hypotensive Activity Dog (i.v.), relative to PGE1 taken as 1” value is 1.5. In addition, the “Diarrhoea-inducing Activity Mice (p.o.), relative to PGE1 taken as 1” value in the data set on mice is listed as below 1.
